Test system: α7 integrin promoter
Experiment: muscle cell-based assay: α7βgal+/− myoblasts/myotubes, LacZ reporter, β-galactosidase cleavage of FDG
Parameters: species or system mouse; Results in α7+/− β-galactosidase assay: scale not given here
Conditions: Myoblasts
How it was run: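 Primary α7βgal+/− mouse myoblasts (LacZ knocked into α7 integrin exon 1, promoter retained), differentiated; promoter activity read as β-galactosidase conversion of non-fluorescent FDG to fluorescein. Hits followed by dose-response, western analysis and myostatin counterscreen.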

## Cc1ccccc1/C=C1\C(=O)Nc2ccc(F)cc21 [drawing 664]
0.5 uM
  Results in α7+/− β-galactosidase assay: 0.2562
1 uM
  Results in α7+/− β-galactosidase assay: 0.1979
5 uM
  Results in α7+/− β-galactosidase assay: 0.05318
10 uM
  Results in α7+/− β-galactosidase assay: 0.04838
20 uM
  Results in α7+/− β-galactosidase assay: −0.109
40 uM
  Results in α7+/− β-galactosidase assay: −0.1352

## Cc1ccc2c(c1)/C(=C/c1ccccc1)C(=O)N2 [drawing 665]
0.5 uM
  Results in α7+/− β-galactosidase assay: 0.07717
1 uM
  Results in α7+/− β-galactosidase assay: 0.02304
5 uM
  Results in α7+/− β-galactosidase assay: 0.03576
10 uM
  Results in α7+/− β-galactosidase assay: 0.07323
20 uM
  Results in α7+/− β-galactosidase assay: −0.484
40 uM
  Results in α7+/− β-galactosidase assay: −0.5725

## COC(=O)c1ccccc1CC(=O)CSc1nc(O)c(-c2ccccc2)c(O)n1 [drawing 666]
0.5 uM
  Results in α7+/− β-galactosidase assay: 0.06548
1 uM
  Results in α7+/− β-galactosidase assay: 0.01829
5 uM
  Results in α7+/− β-galactosidase assay: 0.06613
10 uM
  Results in α7+/− β-galactosidase assay: 0.1141
20 uM
  Results in α7+/− β-galactosidase assay: 0.0713
40 uM
  Results in α7+/− β-galactosidase assay: 0.08837

## Cc1ccc2c(c1)/C(=C/c1ccccc1F)C(=O)N2 [drawing 667]
0.5 uM
  Results in α7+/− β-galactosidase assay: −0.02616
1 uM
  Results in α7+/− β-galactosidase assay: 0.02782
5 uM
  Results in α7+/− β-galactosidase assay: −0.04422
10 uM
  Results in α7+/− β-galactosidase assay: −0.06595
20 uM
  Results in α7+/− β-galactosidase assay: −0.1695
40 uM
  Results in α7+/− β-galactosidase assay: −0.3533

## CC(=O)Nc1ccc(-n2c(C)nc(=O)c(-c3ccccc3)c2C)cc1 [drawing 668]
0.5 uM
  Results in α7+/− β-galactosidase assay: 0.06264
1 uM
  Results in α7+/− β-galactosidase assay: −0.004
5 uM
  Results in α7+/− β-galactosidase assay: −0.1843
10 uM
  Results in α7+/− β-galactosidase assay: −0.1948
20 uM
  Results in α7+/− β-galactosidase assay: −0.4829
40 uM
  Results in α7+/− β-galactosidase assay: −0.7384

## CCc1nc2ccccc2c(C(=O)NCc2ccccc2)c1C [drawing 669]
0.5 uM
  Results in α7+/− β-galactosidase assay: 0.09233
1 uM
  Results in α7+/− β-galactosidase assay: 0.1045
5 uM
  Results in α7+/− β-galactosidase assay: 0.3581
10 uM
  Results in α7+/− β-galactosidase assay: −0.08672
20 uM
  Results in α7+/− β-galactosidase assay: 0.0466
40 uM
  Results in α7+/− β-galactosidase assay: 0.1074

## CCOC(=O)c1cc(-c2cccs2)nc2c1c(C)nn2-c1ccccn1 [drawing 670]
0.5 uM
  Results in α7+/− β-galactosidase assay: 0.09738
1 uM
  Results in α7+/− β-galactosidase assay: 0.1342
5 uM
  Results in α7+/− β-galactosidase assay: −0.1204
10 uM
  Results in α7+/− β-galactosidase assay: −0.2068
20 uM
  Results in α7+/− β-galactosidase assay: −0.3072
40 uM
  Results in α7+/− β-galactosidase assay: −0.5198

## CN1CCN(c2ccccc2/C=C2\C(=O)Nc3ccccc32)CC1 [drawing 671]
0.5 uM
  Results in α7+/− β-galactosidase assay: 0.1788
1 uM
  Results in α7+/− β-galactosidase assay: 0.04505
5 uM
  Results in α7+/− β-galactosidase assay: −0.08497
10 uM
  Results in α7+/− β-galactosidase assay: −0.09387
20 uM
  Results in α7+/− β-galactosidase assay: −0.1256
40 uM
  Results in α7+/− β-galactosidase assay: −0.3824

## COC(=O)c1cc(S(=O)(=O)NCC2CCN(Cc3ccc(Cl)cc3)CC2)cn1C [drawing 672]
0.5 uM
  Results in α7+/− β-galactosidase assay: 0.2815
1 uM
  Results in α7+/− β-galactosidase assay: 0.1861
5 uM
  Results in α7+/− β-galactosidase assay: −0.03678
10 uM
  Results in α7+/− β-galactosidase assay: −0.03865
20 uM
  Results in α7+/− β-galactosidase assay: 0.1247
40 uM
  Results in α7+/− β-galactosidase assay: 0.0618

## COc1ccc(C(=O)Cn2nnc(-c3ccccc3NC(=O)c3ccco3)n2)cc1 [drawing 673]
0.5 uM
  Results in α7+/− β-galactosidase assay: 0.4054
1 uM
  Results in α7+/− β-galactosidase assay: 0.1958
5 uM
  Results in α7+/− β-galactosidase assay: −0.2666
10 uM
  Results in α7+/− β-galactosidase assay: −0.3483
20 uM
  Results in α7+/− β-galactosidase assay: −0.6016
40 uM
  Results in α7+/− β-galactosidase assay: −0.7762

## N#Cc1nc(COc2ccccc2)oc1N1CCCC1 [drawing 674]
0.5 uM
  Results in α7+/− β-galactosidase assay: 0.189
1 uM
  Results in α7+/− β-galactosidase assay: 0.0825
5 uM
  Results in α7+/− β-galactosidase assay: −0.1343
10 uM
  Results in α7+/− β-galactosidase assay: −0.1744
20 uM
  Results in α7+/− β-galactosidase assay: −0.09766
40 uM
  Results in α7+/− β-galactosidase assay: −0.3419

## CCCc1nnc(SCC(=O)NC2CCCC2)n1CCOC [drawing 675]
0.5 uM
  Results in α7+/− β-galactosidase assay: 0.1622
1 uM
  Results in α7+/− β-galactosidase assay: 0.07572
5 uM
  Results in α7+/− β-galactosidase assay: −0.08939
10 uM
  Results in α7+/− β-galactosidase assay: −0.107
20 uM
  Results in α7+/− β-galactosidase assay: −0.1998
40 uM
  Results in α7+/− β-galactosidase assay: −0.413

## Nc1cccc(/C=C/C(=O)O)c1 [drawing 676]
0.5 uM
  Results in α7+/− β-galactosidase assay: 0.1361
1 uM
  Results in α7+/− β-galactosidase assay: 0.05647
5 uM
  Results in α7+/− β-galactosidase assay: −0.05605
10 uM
  Results in α7+/− β-galactosidase assay: 0.2478
20 uM
  Results in α7+/− β-galactosidase assay: −0.08666
40 uM
  Results in α7+/− β-galactosidase assay: −0.2769

## CCCC1C(c2cc(OC)c(OC)c(OC)c2)=Nc2c1c(=O)[nH]c(=O)n2Cc1ccccc1 (stereo not drawn) [drawing 677]
0.5 uM
  Results in α7+/− β-galactosidase assay: 0.221
1 uM
  Results in α7+/− β-galactosidase assay: 0.193
5 uM
  Results in α7+/− β-galactosidase assay: −0.1488
10 uM
  Results in α7+/− β-galactosidase assay: 0.1807
20 uM
  Results in α7+/− β-galactosidase assay: −0.03424
40 uM
  Results in α7+/− β-galactosidase assay: −0.4586

From patent publication US10028992B2, “Methods of treating muscular dystrophy” (BOARD OF REGENTS OF THE NEVADA SYSTEM OF HIGHER EDUCATION …, priority 2012, dated 2018)
